Results: the NIST ThermoML archive (doi:10.1016/j.fluid.2015.12.055)
Numbers after ± are expanded uncertainties.

Details: Liquid, Vibrating tube method

SMILES	mass density (293.15 K, 101.33 kPa)	mass density (298.15 K, 101.33 kPa)	mass density (303.15 K, 101.33 kPa)	mass density (313.15 K, 101.33 kPa)	mass density (323.15 K, 101.33 kPa)	mass density (333.15 K, 101.33 kPa)	mass density (343.15 K, 101.33 kPa)	mass density (353.15 K, 101.33 kPa)	mass density (363.15 K, 101.33 kPa)	mass density (313.15 K, 5000 kPa)	mass density (273.15 K, 101.33 kPa)	mass density (283.15 K, 101.33 kPa)	mass density (313.15 K, 1999 kPa)	other results
CCn1cc[n+](C)c1.F[B-](F)(F)F [1-ethyl-3-methylimidazolium tetrafluoroborate]	1283.53 ± 1.5 kg/m3	1279.7 ± 1.5 kg/m3	1275.89 ± 1.5 kg/m3	1268.33 ± 1.4 kg/m3	1260.85 ± 1.4 kg/m3	1253.45 ± 1.4 kg/m3	1246.11 ± 1.4 kg/m3	1238.83 ± 1.4 kg/m3	1231.6 ± 1.3 kg/m3					mass density (313.15 K, 503 kPa): 1268.82 ± 1.4 kg/m3; mass density (313.15 K, 999 kPa): 1269.09 ± 1.4 kg/m3; mass density (313.15 K, 2001 kPa): 1269.74 ± 1.5 kg/m3; mass density (313.15 K, 2998 kPa): 1270.26 ± 1.5 kg/m3; mass density (313.15 K, 4000 kPa): 1270.93 ± 1.5 kg/m3; mass density (313.15 K, 5002 kPa): 1271.59 ± 1.5 kg/m3; mass density (313.15 K, 6000 kPa): 1272.21 ± 1.5 kg/m3
CCn1cc[n+](C)c1.O=S(=O)([O-])C(F)(F)C(F)(F)C(F)(F)C(F)(F)F		1546.54 ± 4.7 kg/m3	1541.24 ± 4.6 kg/m3	1530.71 ± 4.6 kg/m3	1520.31 ± 4.5 kg/m3	1510.01 ± 4.5 kg/m3	1499.78 ± 4.4 kg/m3	1489.64 ± 4.3 kg/m3	1479.58 ± 4.3 kg/m3	1534.99 ± 4.7 kg/m3				mass density (313.15 K, 510 kPa): 1530.15 ± 4.6 kg/m3; mass density (313.15 K, 1007 kPa): 1530.64 ± 4.6 kg/m3; mass density (313.15 K, 2007 kPa): 1531.73 ± 4.6 kg/m3; mass density (313.15 K, 3005 kPa): 1532.82 ± 4.7 kg/m3; mass density (313.15 K, 4004 kPa): 1533.91 ± 4.7 kg/m3; mass density (313.15 K, 5999 kPa): 1536.06 ± 4.7 kg/m3
CCn1cc[n+](C)c1.O=S(=O)([N-]S(=O)(=O)C(F)(F)F)C(F)(F)F	1523.89 ± 4.5 kg/m3	1518.83 ± 4.5 kg/m3	1513.78 ± 4.5 kg/m3	1503.75 ± 4.4 kg/m3	1493.8 ± 4.4 kg/m3	1483.92 ± 4.3 kg/m3	1474.1 ± 4.2 kg/m3	1464.36 ± 4.2 kg/m3	1454.67 ± 4.1 kg/m3		1544.43 ± 4.7 kg/m3	1534.1 ± 4.6 kg/m3	1505.7 ± 4.5 kg/m3	mass density (313.15 K, 508 kPa): 1504.27 ± 4.4 kg/m3; mass density (313.15 K, 1002 kPa): 1504.75 ± 4.4 kg/m3; mass density (313.15 K, 3001 kPa): 1506.65 ± 4.5 kg/m3; mass density (313.15 K, 3997 kPa): 1507.6 ± 4.5 kg/m3; mass density (313.15 K, 5001 kPa): 1508.55 ± 4.5 kg/m3; mass density (313.15 K, 6005 kPa): 1509.49 ± 4.6 kg/m3
CCn1cc[n+](C)c1.O=S(=O)([N-]S(=O)(=O)C(F)(F)C(F)(F)F)C(F)(F)C(F)(F)F	1599.21 ± 5 kg/m3	1593.65 ± 5 kg/m3	1588.12 ± 4.9 kg/m3	1577.13 ± 4.9 kg/m3	1566.23 ± 4.8 kg/m3	1555.4 ± 4.7 kg/m3	1544.63 ± 4.7 kg/m3	1533.92 ± 4.6 kg/m3	1523.27 ± 4.5 kg/m3	1582.86 ± 5 kg/m3	1621.64 ± 5.1 kg/m3	1610.4 ± 5.1 kg/m3	1579.57 ± 4.9 kg/m3	mass density (313.15 K, 497 kPa): 1577.9 ± 4.9 kg/m3; mass density (313.15 K, 1001 kPa): 1578.46 ± 4.9 kg/m3; mass density (313.15 K, 3003 kPa): 1580.67 ± 5 kg/m3; mass density (313.15 K, 4007 kPa): 1581.77 ± 5 kg/m3; mass density (313.15 K, 6004 kPa): 1583.94 ± 5 kg/m3
